Assay [1] concerns the target T1, ItypOR46 (Ips typographus, UniProt A0A7L8XZ66).
T1 construct: with ItypOrco
T1 sequence (A0A7L8XZ66 1-408): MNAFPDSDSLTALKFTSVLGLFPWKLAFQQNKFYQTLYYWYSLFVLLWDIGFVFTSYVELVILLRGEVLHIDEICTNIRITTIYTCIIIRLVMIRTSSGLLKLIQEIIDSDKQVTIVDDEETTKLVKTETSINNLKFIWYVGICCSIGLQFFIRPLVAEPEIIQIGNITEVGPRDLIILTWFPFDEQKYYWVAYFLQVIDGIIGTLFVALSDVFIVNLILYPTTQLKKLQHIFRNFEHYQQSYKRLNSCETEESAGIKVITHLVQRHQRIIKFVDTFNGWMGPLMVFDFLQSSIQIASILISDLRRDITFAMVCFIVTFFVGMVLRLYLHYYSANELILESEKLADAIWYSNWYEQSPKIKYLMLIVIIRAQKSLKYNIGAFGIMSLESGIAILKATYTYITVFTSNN
In words: two-electrode voltage clamp dose-response in Xenopus oocytes (secondary response; not significant in HEK cells). It counts as cell-based.

A further assay concerns the target T2, ItypOR49 (Ips typographus, UniProt A0A7L8XYT4).
T2 construct: gene OR49; full-length, N-terminal V5 tag; with ItypOrco
T2 sequence (A0A7L8XYT4 1-406): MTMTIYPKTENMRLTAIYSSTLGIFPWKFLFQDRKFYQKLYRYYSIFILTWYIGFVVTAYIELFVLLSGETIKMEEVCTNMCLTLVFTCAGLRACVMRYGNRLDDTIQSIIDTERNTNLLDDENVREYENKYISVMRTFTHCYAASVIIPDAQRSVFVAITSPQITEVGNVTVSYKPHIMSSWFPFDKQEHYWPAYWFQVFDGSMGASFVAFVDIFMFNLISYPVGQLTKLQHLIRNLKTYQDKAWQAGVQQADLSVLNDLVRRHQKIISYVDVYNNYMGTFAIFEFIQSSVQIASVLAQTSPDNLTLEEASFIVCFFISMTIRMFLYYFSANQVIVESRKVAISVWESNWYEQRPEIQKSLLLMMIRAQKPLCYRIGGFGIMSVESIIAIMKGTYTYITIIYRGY
T2 sequence (A0A7L8XYY7 1-480 partner): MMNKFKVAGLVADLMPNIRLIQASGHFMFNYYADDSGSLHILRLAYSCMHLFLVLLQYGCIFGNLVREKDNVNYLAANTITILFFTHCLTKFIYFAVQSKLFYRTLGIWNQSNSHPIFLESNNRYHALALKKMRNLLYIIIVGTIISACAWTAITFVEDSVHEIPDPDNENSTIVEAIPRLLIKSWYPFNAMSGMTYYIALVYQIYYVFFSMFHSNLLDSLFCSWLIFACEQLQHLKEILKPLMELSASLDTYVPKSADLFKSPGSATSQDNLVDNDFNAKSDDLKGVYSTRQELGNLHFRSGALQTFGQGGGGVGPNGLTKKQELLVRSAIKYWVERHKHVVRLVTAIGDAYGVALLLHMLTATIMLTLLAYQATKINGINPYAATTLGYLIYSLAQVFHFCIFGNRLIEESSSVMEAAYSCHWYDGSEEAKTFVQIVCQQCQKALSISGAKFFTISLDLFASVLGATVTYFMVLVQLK
In words: calcium fluorescence dose-response in TREx/HEK293 cells. It counts as cell-based.

The test system of assay [2] is T3, ItypOR46.
T3 construct: gene OR46; full-length, N-terminal V5 tag; with ItypOrco
In words: calcium fluorescence assay in TREx/HEK293 cells; also Xenopus oocyte two-electrode voltage clamp; site-directed mutagenesis. It counts as cell-based, Ips typographus.

For another assay, the target named is T4, ItypOrco (Ips typographus, UniProt A0A7L8XYY7).
T4 construct: full-length, N-terminal c-Myc tag
T4 sequence (A0A7L8XYY7 1-480): T2 sequence (A0A7L8XYY7 1-480 partner)
In words: calcium fluorescence dose-response in TREx/HEK293 cells expressing only ItypOrco. It counts as cell-based.

On to `C=CC(=C)C[C@@H](O)C=C(C)C` [(R)-(−)-ipsdienol], for which, at ItypOR46 [1], the “two-electrode voltage clamp dose-response in Xenopus oocytes (secondary response)” value is reported as “secondary response of ItypOR46 to racemic ipsdienol is mainly triggered by the (R)-(−)-enantiomer”. Also, at ItypOR49, the EC50 was determined as 9.47 µM. Take `C=CC(=C)C[C@@H](O)CC(C)C` [(S)-(−)-ipsenol]: in the assay on ItypOR46 [2], the concentration giving a half-maximal response (EC50) came out at 1.98 µM.

Regarding `CCc1ccc(NC(=O)CSc2nnc(-c3cccnc3)n2CC)cc1` [VUAA1], on ItypOrco, the 50% effective concentration (EC50) was determined as 24.5 µM.

Values taken from publication PMC7836466, “Putative ligand binding sites of two functionally characterized bark beetle odorant receptors” (BMC Biology, 2021).
